The assay has as its target T1, RORγ-LBD (Homo sapiens, UniProt P51449).
T1 construct: made in house; host or cells: SF9 cells (baculovirus); used as diluted lysate
T1 sequence (P51449 269-508 limits assumed): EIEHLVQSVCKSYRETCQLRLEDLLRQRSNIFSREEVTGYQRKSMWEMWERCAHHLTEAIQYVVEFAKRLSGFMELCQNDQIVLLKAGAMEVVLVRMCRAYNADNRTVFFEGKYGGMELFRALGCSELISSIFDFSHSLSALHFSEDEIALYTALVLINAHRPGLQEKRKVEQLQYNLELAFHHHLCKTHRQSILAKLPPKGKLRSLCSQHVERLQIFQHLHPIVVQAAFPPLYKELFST
Briefly: RORγ-Ligand Binding Domain (LBD) TR-FRET Assay.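 On TR-FRET Assay Max Response: 665/615 nm signal ratio set to 100 without ursolic acid or test compound.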 To be noted: for TR-FRET Assay Max Response: maximum response. It is filed as biochemical. On the procedure:
Assay procedures and results are described below.
HIS-tagged RORγ-LBD protein was expressed in SF9 cells using a baculovirus expression system. The lysate was diluted in assay buffer (50 mM Tris pH 7.0, 50 mM KCl, 1 mM EDTA, 0.1 mM DTT, 0.01% BSA) to obtain RORγ-LBD final concentration of ˜3 nM in a 384-well assay plate (need to titrate for each batch of protein).
A stock of biotinylated-LXXLL peptide from coactivator SRC1 (Biotin-[…]) was prepared in assay buffer and added to each well (200 nM final concentration). […] RORγ antagonist ursolic acid was also included at a final concentration of 2 μM. Compounds were diluted in DMSO and further diluted in assay buffer with a final DMSO concentration at 1%.
For orientation: In TR-FRET formats the signal depends on donor and acceptor labels being close together.

The mark [1] stands for this setting: with 2 μM ursolic acid (RORγ antagonist), highest test concentration 10 μM.

17 molecules from patent US9896441B2 (Lycera Corporation, priority 2014, dated 2018) can be followed below.

Turning to `O=C(O)CC[C@H]1CN(S(=O)(=O)c2cc(C(F)(F)F)cnc2OCCO)c2cc(/C=C3\CCCOC3)ccc2O1` [Example 95X, (S,E)-3-(6-((dihydro-2H-pyran-3(4H)-ylidene)methyl)-4-((2-(2-hydroxyethoxy)-5-(trifluoromethyl)pyridin-3-yl)sulfonyl)-3,4-dihydro-2H-benzo[b][1,4]oxazin-2-yl)propanoic acid], the 50% effective concentration (EC50) (RORγ-LBD TR-FRET) fell in the range of 500 to 5000 nM.
Take `Cc1noc(C)c1NC(=O)N[C@@H]1Cc2ccc(/C=C/c3c(F)cccc3C(F)(F)F)cc2N(S(=O)(=O)c2cccc(C(F)(F)F)c2)[C@@H]1C` [Example 116L, 1-(3,5-dimethylisoxazol-4-yl)-3-((2R,3R)-7-((E)-2-fluoro-6-(trifluoromethyl)styryl)-2-methyl-1-((3-(trifluoro-methyl)phenyl)sulfonyl)-1,2,3,4-tetrahydroquinolin-3-yl)urea]: where the note is “RORγ-LBD TR-FRET assay”, the concentration for a half-maximal effect (EC50) was under 500 nM and the “TR-FRET Assay Max Response” value is “*** (a value in the range of greater than 150 to 200)”.
For `C[C@@H]1[C@H](NC(=O)Nc2ccccn2)Cc2ccc(/C=C/c3c(F)cccc3C(F)(F)F)cc2N1S(=O)(=O)c1cccc(C(F)(F)F)c1` [Example 116M, 1-((2R,3R)-7-((E)-2-fluoro-6-(trifluoromethyl)styryl)-2-methyl-1-((3-(trifluoro-methyl)phenyl)sulfonyl)-1,2,3,4-tetrahydroquinolin-3-yl)-3-(pyridin-2-yl)urea], in that order: 500 to 5000 nM and “*** (a value in the range of greater than 150 to 200)”.
In the case of `COC(=O)N[C@@H]1Cc2ccc(/C=C(\C)c3c(F)cccc3Cl)cc2N(S(=O)(=O)c2cccc(C(F)(F)F)c2)[C@@H]1C` [Example 143, Methyl ((2R,3R)-7-((E)-2-(2-chloro-6-fluorophenyl)prop-1-en-1-yl)-2-methyl-1-((3-(trifluoromethyl)phenyl)sulfonyl)-1,2,3,4-tetrahydroquinolin-3-yl)carbamate], where the note is “RORγ-LBD TR-FRET assay”, the half-maximal effective concentration (EC50) is under 500 nM and the “TR-FRET Assay Max Response” value is “** (a value in the range of greater than 90 to 150)”.
In the same order, the values of `CNC(=O)N[C@@H]1Cc2ccc(/C=C(\C)c3c(F)cccc3Cl)cc2N(S(=O)(=O)c2cccc(C(F)(F)F)c2)[C@@H]1C` [Example 145, 1-((2R,3R)-7-((E)-2-(2-Chloro-6-fluorophenyl)prop-1-en-1-yl)-2-methyl-1-((3-(trifluoromethyl)phenyl)sulfonyl)-1,2,3,4-tetrahydroquinolin-3-yl)-3-methylurea] are under 500 nM and “** (a value in the range of greater than 90 to 150)”.
For `CC(=O)N[C@@H]1Cc2ccc(/C=C(\C)c3c(F)cccc3Cl)cc2N(S(=O)(=O)c2cccc(C(F)(F)F)c2)[C@@H]1C` [Example 148, N-((2R,3R)-7-((E)-2-(2-Chloro-6-fluorophenyl)prop-1-en-1-yl)-2-methyl-1-((3-(trifluoromethyl)phenyl)sulfonyl)-1,2,3,4-tetrahydroquinolin-3-yl)acetamide], in that order: under 500 nM and “** (a value in the range of greater than 90 to 150)”.
As for `C/C(=C\c1ccc2c(c1)C[C@@H](C(=O)O)[C@@H](C)N2S(=O)(=O)c1cccc(C(F)(F)F)c1)c1c(F)cccc1Cl` [Example 149, (2R,3R)-6-((E)-2-(2-Chloro-6-fluorophenyl)prop-1-en-1-yl)-2-methyl-1-((3-(trifluoromethyl)phenyl)sulfonyl)-1,2,3,4-tetrahydroquinoline-3-carboxylic acid], the EC50 (RORγ-LBD TR-FRET assay) was over 10000 nM.
Still for that read-out and setting: in the case of `C/C(=C\c1ccc2c(c1)CC(CC(=O)O)CN2S(=O)(=O)c1cccc(C(F)(F)F)c1)c1c(F)cccc1Cl` (stereo not drawn) [Example 150, (E)-2-(6-(2-(2-Chloro-6-fluorophenyl)prop-1-en-1-yl)-1-((3-(trifluoromethyl)phenyl)sulfonyl)-1,2,3,4-tetrahydroquinolin-3-yl)acetic acid] it was over 10000 nM.
Take `COc1cc(S(=O)(=O)N2c3cc(OCc4c(F)cccc4Cl)ccc3C[C@@H](CO)[C@H]2C)ccc1F` [Example 151, ((2R,3R)-7-((2-Chloro-6-fluorobenzyl)oxy)-1-((4-fluoro-3-methoxyphenyl)sulfonyl)-2-methyl-1,2,3,4-tetrahydroquinolin-3-yl)methanol]: under “RORγ-LBD TR-FRET assay”, the half-maximal effective concentration (EC50) was under 500 nM and the “TR-FRET Assay Max Response” value is on record as “** (a value in the range of greater than 90 to 150)”.
Consider `COC(=O)C(C)(C)C[C@@H]1Cc2ccc(/C=C(\C)c3c(F)cccc3Cl)cc2N(S(=O)(=O)c2ccc(F)c(OC)c2)C1` [Example 154B, methyl (S,E)-3-(7-(2-(2-chloro-6-fluorophenyl)prop-1-en-1-yl)-1-((4-fluoro-3-methoxyphenyl)sulfonyl)-1,2,3,4-tetrahydroquinolin-3-yl)-2,2-dimethylpropanoate], for which, where the note is “RORγ-LBD TR-FRET assay”, the EC50 was under 500 nM and the “TR-FRET Assay Max Response” value is given as “** (a value in the range of greater than 90 to 150)”.
For `CCOC(=O)C(C)(C)CC1CC(S(=O)(=O)c2ccc(F)c(OC)c2)c2cc(OCc3c(F)cccc3Cl)ccc2O1` (stereo not drawn) [Example 185, Ethyl 3-(6-((2-chloro-6-fluorobenzyl)oxy)-4-((4-fluoro-3-methoxyphenyl)sulfonyl)chroman-2-yl)-2,2-dimethylpropanoate], in that order: under 500 nM and “** (a value in the range of greater than 90 to 150)”.
Consider `CCOC(=O)C(C)(C)CC1CC(S(=O)(=O)c2cccc(C(F)(F)F)c2)c2cc(OCc3c(F)cccc3Cl)ccc2O1` (stereo not drawn) [Example 186D, ethyl 3-(6-((2-chloro-6-fluorobenzyl)oxy)-4-((3-(trifluoromethyl)phenyl)-sulfonyl)chroman-2-yl)-2,2-dimethylpropanoate], for which, where the note is “RORγ-LBD TR-FRET assay”, the EC50 is under 500 nM and the “TR-FRET Assay Max Response” value is “*** (a value in the range of greater than 150 to 200)”.
For `COc1cc(S(=O)(=O)C2CC(CC(C)(C)C(=O)O)Oc3ccc(/C=C(\C)c4c(F)cccc4Cl)cc32)ccc1F` (stereo not drawn) [Example 186K, (E)-3-(6-(2-(2-chloro-6-fluorophenyl)prop-1-en-1-yl)-4-((4-fluoro-3-methoxyphenyl)-sulfonyl)chroman-2-yl)-2,2-dimethylpropanoic acid], in that order: under 500 nM and “*** (a value in the range of greater than 150 to 200)”.
Consider `C/C(=C\c1ccc2c(c1)N(S(=O)(=O)c1cccc(C(F)(F)F)c1)C[C@H](CCCC(=O)O)O2)c1c(F)cccc1Cl` [Example 195G, (S,E)-4-(6-(2-(2-chloro-6-fluorophenyl)prop-1-en-1-yl)-4-((3-(trifluoromethyl)phenyl)-sulfonyl)-3,4-dihydro-2H-benzo[b][1,4]oxazin-2-yl)butanoic acid], for which the EC50 under setting [1] was under 500 nM.
The molecule `COC(=O)CCC[C@H]1CN(S(=O)(=O)c2cccc(C(F)(F)F)c2)c2cc(/C=C(\C)c3c(F)cccc3Cl)ccc2O1` [Example 195H, methyl (S,E)-4-(6-(2-(2-chloro-6-fluorophenyl)prop-1-en-1-yl)-4-((3-(trifluoromethyl)phenyl)-sulfonyl)-3,4-dihydro-2H-benzo[b][1,4]oxazin-2-yl)butanoate] displayed a half-maximal effective concentration (EC50) under setting [1] of under 500 nM.
Under setting [1], `CCOC(=O)C1Cc2ccc(OCc3c(F)cccc3Cl)cc2N(S(=O)(=O)c2cn(CC)nc2Cl)C1` (stereo not drawn) [drawing 1599] showed a concentration for a half-maximal effect (EC50) of under 500 nM.
On the same count and under the same terms, the result for `Cc1nn(C(F)F)cc1S(=O)(=O)N1CC(CO)Cc2ccc(OCc3c(F)cccc3Cl)cc21` (stereo not drawn) [drawing 1601] reads under 500 nM.

As a reminder, the EC50 is the concentration at which the effect is half-maximal. A higher EC50 goes with weaker potency.
